Measurements taken from patent publication US12503438B2, “Compounds for the treatment of kinase-dependent disorders” (Exelixis, Inc., priority 2019, dated 2025).
pIC50: −log10 of the molar value.

Target: Met (Homo sapiens, UniProt P08581)
Test: Met autophosphorylation ELISA in PC-3 cells
Format: cell-based
Set-up: endogenous in cells; host or cells: PC-3 prostate cancer cells (ATCC #CRL-1435)
Details: cellular activity, HGF-stimulated, phospho-Met ELISA, read-out: c-Met IC50
How it was run: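 Phospho-Met (panTyr) sandwich ELISA on lysates of PC-3 cells given 100 ng/mL HGF for 10 min after 1 h compound exposure (8-point curve, 0.3% DMSO) following 3 h serum starvation. Normalised to HGF-stimulated DMSO and reference-inhibitor wells; 4-parameter logistic IC50.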

Sequence of Met (P08581 25-1390): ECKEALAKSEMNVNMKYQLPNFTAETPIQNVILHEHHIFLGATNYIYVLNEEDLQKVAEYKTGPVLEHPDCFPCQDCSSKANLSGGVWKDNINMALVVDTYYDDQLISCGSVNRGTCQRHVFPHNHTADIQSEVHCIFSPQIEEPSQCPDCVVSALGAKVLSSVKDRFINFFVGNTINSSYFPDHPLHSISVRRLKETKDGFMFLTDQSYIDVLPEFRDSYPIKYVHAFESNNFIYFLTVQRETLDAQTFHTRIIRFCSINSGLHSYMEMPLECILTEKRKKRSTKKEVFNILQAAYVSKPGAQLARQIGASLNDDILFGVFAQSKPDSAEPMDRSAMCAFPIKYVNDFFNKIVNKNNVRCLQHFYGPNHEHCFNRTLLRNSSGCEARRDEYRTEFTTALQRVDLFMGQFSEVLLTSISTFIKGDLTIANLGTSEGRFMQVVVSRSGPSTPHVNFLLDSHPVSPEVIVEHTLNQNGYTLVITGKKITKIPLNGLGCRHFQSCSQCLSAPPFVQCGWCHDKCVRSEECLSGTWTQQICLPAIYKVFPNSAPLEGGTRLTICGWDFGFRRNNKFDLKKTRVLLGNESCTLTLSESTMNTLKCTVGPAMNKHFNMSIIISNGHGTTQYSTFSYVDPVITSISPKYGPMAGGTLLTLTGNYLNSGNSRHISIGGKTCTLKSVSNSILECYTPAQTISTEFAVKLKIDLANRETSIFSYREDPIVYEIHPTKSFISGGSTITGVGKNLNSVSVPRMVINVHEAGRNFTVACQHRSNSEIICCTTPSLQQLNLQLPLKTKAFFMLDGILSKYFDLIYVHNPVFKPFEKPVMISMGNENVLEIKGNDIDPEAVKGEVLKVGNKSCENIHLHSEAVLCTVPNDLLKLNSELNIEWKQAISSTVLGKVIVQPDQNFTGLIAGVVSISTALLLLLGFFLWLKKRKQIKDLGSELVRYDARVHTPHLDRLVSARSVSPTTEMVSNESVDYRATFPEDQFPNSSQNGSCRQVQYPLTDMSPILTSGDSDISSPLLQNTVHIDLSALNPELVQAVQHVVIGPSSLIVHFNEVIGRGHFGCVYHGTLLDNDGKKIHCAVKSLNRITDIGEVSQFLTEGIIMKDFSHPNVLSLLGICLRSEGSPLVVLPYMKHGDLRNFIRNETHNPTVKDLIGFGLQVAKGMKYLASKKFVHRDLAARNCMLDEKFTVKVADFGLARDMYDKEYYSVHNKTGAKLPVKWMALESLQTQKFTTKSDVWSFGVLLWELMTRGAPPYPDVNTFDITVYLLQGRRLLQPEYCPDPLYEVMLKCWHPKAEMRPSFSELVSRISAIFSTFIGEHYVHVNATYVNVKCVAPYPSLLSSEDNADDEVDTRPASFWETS

pIC50	SMILES
7.00 to 8.00	O=C(Nc1ccc(F)cc1)C1(C(=O)Nc2ccc(Oc3ccnc4cc(-c5cncs5)ccc34)cc2)CC1 [Compound 116, 1-N′-(4-Fluorophenyl)-1-N-[4-[7-(1,3-thiazol-5-yl)quinolin-4-yl]oxyphenyl]cyclopropane-1,1-dicarboxamide]
7.00 to 8.00	N#Cc1cncc(-c2ccc3c(Oc4ccc(NC(=O)C5(C(=O)Nc6ccc(F)cc6)CC5)cc4)ccnc3c2)c1 [Compound 40, 1-N-[4-[7-(5-Cyanopyridin-3-yl)quinolin-4-yl]oxyphenyl]-1-N′-(4-fluorophenyl)cyclopropane-1,1-dicarboxamide]
7.00 to 8.00	O=C(Nc1ccc(F)cc1)C1(C(=O)Nc2ccc(Oc3ccnc4cc(-c5cnoc5)ccc34)cc2)CC1 [Compound 57, 1-N′-(4-Fluorophenyl)-1-N-[4-[7-(1,2-oxazol-4-yl)quinolin-4-yl]oxyphenyl]cyclopropane-1,1-dicarboxamide]
≥ 8.00	O=C(Nc1ccc(F)cc1)C1(C(=O)Nc2ccc(Oc3ccnc4cc(-c5ncc[nH]5)ccc34)cc2)CC1 [Compound 74, 1-N′-(4-Fluorophenyl)-1-N-[4-[7-(1H-imidazol-2-yl)quinolin-4-yl]oxyphenyl]cyclopropane-1,1-dicarboxamide]
7.00 to 8.00	N#Cc1ccc(-c2ccc3c(Oc4ccc(NC(=O)C5(C(=O)Nc6ccc(F)cc6)CC5)cc4)ccnc3c2)cn1 [Compound 42, 1-N-[4-[7-(6-Cyanopyridin-3-yl)quinolin-4-yl]oxyphenyl]-1-N′-(4-fluorophenyl)cyclopropane-1,1-dicarboxamide]
7.00 to 8.00	O=C(Nc1ccc(F)cc1)C1(C(=O)Nc2ccc(Oc3ccnc4cc(-c5cncnc5)ccc34)cc2)CC1 [Compound 27, 1-N′-(4-Fluorophenyl)-1-N-[4-(7-pyrimidin-5-ylquinolin-4-yl)oxyphenyl]cyclopropane-1,1-dicarboxamide]
≥ 8.00	O=C(Nc1ccc(F)cc1)C1(C(=O)Nc2ccc(Oc3ccnc4cc(-c5cnn(CCO)c5)ccc34)cc2)CC1 [Compound 18, 1-N′-(4-Fluorophenyl)-1-N-[4-[7-[1-(2-hydroxyethyl)pyrazol-4-yl]quinolin-4-yl]oxyphenyl]cyclopropane-1,1-dicarboxamide]
7.00 to 8.00	CCn1cc(-c2ccc3c(Oc4ccc(NC(=O)C5(C(=O)Nc6ccc(F)cc6)CC5)cc4)ccnc3c2)cn1 [Compound 20, 1-N-[4-[7-(1-Ethylpyrazol-4-yl)quinolin-4-yl]oxyphenyl]-1-N′-(4-fluorophenyl)cyclopropane-1,1-dicarboxamide]
7.00 to 8.00	O=C(Nc1ccc(F)cc1)C1(C(=O)Nc2ccc(Oc3ccnc4cc(-c5ccc(F)nc5)ccc34)cc2)CC1 [Compound 41, 1-N′-(4-Fluorophenyl)-1-N-[4-[7-(6-fluoropyridin-3-yl)quinolin-4-yl]oxyphenyl]cyclopropane-1,1-dicarboxamide]

The next lines start with the compound.

SMILES	pIC50
O=C(Nc1ccc(F)cc1)C1(C(=O)Nc2ccc(Oc3ccnc4cc(-c5cccnc5)ccc34)c(F)c2)CC1 [Compound 113, 1-N-(4-Fluorophenyl)-1-N′-[3-fluoro-4-(7-pyridin-3-ylquinolin-4-yl)oxyphenyl]cyclopropane-1,1-dicarboxamide]	7.00 to 8.00
COc1cc2c(Oc3ccc(NC(=O)C4(C(=O)Nc5ccc(F)cc5)CC4)cc3)ccnc2cc1-c1cnn(C)c1 [Compound 76, 1-N′-(4-Fluorophenyl)-1-N-[4-[6-methoxy-7-(1-methylpyrazol-4-yl)quinolin-4-yl]oxyphenyl]cyclopropane-1,1-dicarboxamide]	7.00 to 8.00
O=C(Nc1ccc(F)cc1)C1(C(=O)Nc2ccc(Oc3ccnc4cc(-c5cnn(CC(F)F)c5)ccc34)cc2)CC1 [Compound 15, 1-N-[4-[7-[1-(2,2-Difluoroethyl)pyrazol-4-yl]quinolin-4-yl]oxyphenyl]-1-N′-(4-fluorophenyl)cyclopropane-1,1-dicarboxamide]	7.00 to 8.00
Cc1cc2c(Oc3ccc(NC(=O)C4(C(=O)Nc5ccc(F)cc5)CC4)cc3F)ccnc2cc1-c1ncc[nH]1 [Compound 122, 1-N′-[3-Fluoro-4-[7-(1H-imidazol-2-yl)-6-methylquinolin-4-yl]oxyphenyl]-1-N-(4-fluorophenyl)cyclopropane-1,1-dicarboxamide]	7.00 to 8.00
Cc1cc2c(Oc3cc(F)c(NC(=O)C4(C(=O)Nc5ccc(F)cc5)CC4)cc3F)ccnc2cc1-c1ncc[nH]1 [Compound 121, 1-N′-[2,5-Difluoro-4-[7-(1H-imidazol-2-yl)-6-methylquinolin-4-yl]oxyphenyl]-1-N-(4-fluorophenyl)cyclopropane-1,1-dicarboxamide]	7.00 to 8.00
Cn1ncc(-c2ccc3c(Oc4ccc(NC(=O)C5(C(=O)Nc6ccc(F)cc6)CC5)cc4)ccnc3c2)n1 [Compound 86, 1-N′-(4-Fluorophenyl)-1-N-[4-[7-(2-methyltriazol-4-yl)quinolin-4-yl]oxyphenyl]cyclopropane-1,1-dicarboxamide]	7.00 to 8.00
Cc1cc2c(Oc3ccc(NC(=O)C4(C(=O)Nc5ccc(F)cc5)CC4)cc3)ccnc2cc1-c1cnn(C)c1 [Compound 78, 1-N′-(4-Fluorophenyl)-1-N-[4-[6-methyl-7-(1-methylpyrazol-4-yl)quinolin-4-yl]oxyphenyl]cyclopropane-1,1-dicarboxamide]	≥ 8.00
O=C(Nc1ccc(F)cc1)C1(C(=O)Nc2ccc(Oc3ccnc4cc(-c5cnn(CCN6CCOCC6)c5)ccc34)cc2)CC1 [Compound 19, 1-N′-(4-Fluorophenyl)-1-N-[4-[7-[1-(2-morpholin-4-ylethyl)pyrazol-4-yl]quinolin-4-yl]oxyphenyl]cyclopropane-1,1-dicarboxamide]	7.00 to 8.00
CN1CCN(c2cc(-c3ccc4c(Oc5ccc(NC(=O)C6(C(=O)Nc7ccc(F)cc7)CC6)cc5)ccnc4c3)ccn2)CC1 [Compound 111, 1-N′-(4-Fluorophenyl)-1-N-[4-[7-[2-(4-methylpiperazin-1-yl)pyridin-4-yl]quinolin-4-yl]oxyphenyl]cyclopropane-1,1-dicarboxamide]	6.52 to 7.00
CS(=O)(=O)n1cc(-c2ccc3c(Oc4ccc(NC(=O)C5(C(=O)Nc6ccc(F)cc6)CC5)cc4)ccnc3c2)cn1 [Compound 79, 1-N′-(4-Fluorophenyl)-1-N-[4-[7-(1-methylsulfonylpyrazol-4-yl)quinolin-4-yl]oxyphenyl]cyclopropane-1,1-dicarboxamide]	7.00 to 8.00
